System: NCI-H460 tumor
Experiment: In vivo biodistribution in NCI-H460 tumor bearing mice
Set-up: Summary: organs / Summary: Carcass / Summary: faeces: unit not given here
Details: for Summary: urine: in %; for Summary: Recovery: in % (unit assumed)
How it was run: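 Biodistribution of 18F-labeled compounds was assessed in female NMRI (nu/nu) mice bearing NCI-H460 tumors, established by inoculating 5×10^6 cells 8 to 10 days beforehand. Each mouse received 185 kBq of the fluorinated tracer; at least n=3 animals per time point were sacrificed, organs excised, and radioactivity quantified with a γ-counter.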

Pancreas uptake (% ID/g) (0.25 h p.i.): 11.45 % ID/g | Pancreas (% ID/g at 1 h p.i.) (1 h p.i.): 3.62 % ID/g | Tumor (% ID/g at 1 h p.i.) (1 h p.i.): 6.47 % ID/g | Urine (% ID at 1 h p.i.) (1 h p.i.): 82.1 ± 7.3 % ID | activity excreted (kidneys/urine) (1 h p.i.): 82.1% | tumor-to-pancreas ratio (1 h p.i.): 1.8 | T/Blood (1 h post injection): 33.9 | T/Muscle (1 h post injection): 103.4 | Tumor uptake (% ID/g) (2 h p.i.): 7.21 % ID/g | Tumor uptake (% ID/g) (4 h p.i.): 5.17 % ID/g | tumor uptake and retention (summary statement) (mouse, in vivo): high tumor uptake and retention | Adrenals (% Dosis/g) (timepoint 0.25 h): 0.69 % Dosis/g | Blood (% Dosis/g) (timepoint 0.25 h): 1.28 % Dosis/g | Bone (% Dosis/g) (timepoint 0.25 h): 0.39 % Dosis/g | Brain (% Dosis/g) (timepoint 0.25 h): 0.09 % Dosis/g | Fat (% Dosis/g) (timepoint 0.25 h): 0.16 % Dosis/g | Gallbladder (% Dosis/g) (timepoint 0.25 h): 2.53 % Dosis/g | Heart (% Dosis/g) (timepoint 0.25 h): 0.58 % Dosis/g | Intestine (% Dosis/g) (timepoint 0.25 h): 1.10 % Dosis/g | Liver (% Dosis/g) (timepoint 0.25 h): 9.02 % Dosis/g | Muscle (% Dosis/g) (timepoint 0.25 h): 0.26 % Dosis/g | Ovaries (% Dosis/g) (timepoint 0.25 h): 1.25 % Dosis/g | Pancreas (% Dosis/g) (timepoint 0.25 h): 11.45 % Dosis/g | Skin (% Dosis/g) (timepoint 0.25 h): 1.58 % Dosis/g | Spleen (% Dosis/g) (timepoint 0.25 h): 2.49 % Dosis/g | Stomach (% Dosis/g) (timepoint 0.25 h): 3.08 % Dosis/g | Summary: Carcass (timepoint 0.25 h): 9.55 | Summary: organs (timepoint 0.25 h): 36.92 | Tail (% Dosis/g) (timepoint 0.25 h): 3.02 % Dosis/g | Thyroid (% Dosis/g) (timepoint 0.25 h): 0.78 % Dosis/g | Tumor (% Dosis/g) (timepoint 0.25 h): 5.55 % Dosis/g | Tumor/Tissue: Adrenals (timepoint 0.25 h): 8.53 | Tumor/Tissue: Blood (timepoint 0.25 h): 4.49 | Tumor/Tissue: Bone (timepoint 0.25 h): 14.61 | Tumor/Tissue: Brain (timepoint 0.25 h): 62.27 | Tumor/Tissue: Fat (timepoint 0.25 h): 37.81 | Tumor/Tissue: Gallbladder (timepoint 0.25 h): 2.19 | Tumor/Tissue: Heart (timepoint 0.25 h): 9.67 | Tumor/Tissue: Intestine (timepoint 0.25 h): 4.93 | Tumor/Tissue: Kidney (timepoint 0.25 h): 0.36 | Tumor/Tissue: Liver (timepoint 0.25 h): 0.62 | Tumor/Tissue: Lung (timepoint 0.25 h): 3.79 | Tumor/Tissue: Muscle (timepoint 0.25 h): 20.90 | Tumor/Tissue: Ovaries (timepoint 0.25 h): 4.55 | Tumor/Tissue: Pancreas (timepoint 0.25 h): 0.49 | Tumor/Tissue: Skin (timepoint 0.25 h): 3.71 | Tumor/Tissue: Spleen (timepoint 0.25 h): 2.27 | Tumor/Tissue: Stomach (timepoint 0.25 h): 1.75 | Tumor/Tissue: Thyroid (timepoint 0.25 h): 7.48 | Tumor/Tissue: Uterus (timepoint 0.25 h): 2.31 | Uterus (% Dosis/g) (timepoint 0.25 h): 2.54 % Dosis/g | Summary: urine (timepoint 0.25 h): 50.49 | Summary: Recovery (timepoint 0.25 h): 96.96 | Adrenals (% Dosis/g) (timepoint 0.5 h): 0.57 % Dosis/g | Blood (% Dosis/g) (timepoint 0.5 h): 0.74 % Dosis/g | Bone (% Dosis/g) (timepoint 0.5 h): 0.30 % Dosis/g | Brain (% Dosis/g) (timepoint 0.5 h): 0.07 % Dosis/g | Fat (% Dosis/g) (timepoint 0.5 h): 0.12 % Dosis/g | Gallbladder (% Dosis/g) (timepoint 0.5 h): 5.25 % Dosis/g | Heart (% Dosis/g) (timepoint 0.5 h): 0.38 % Dosis/g | Intestine (% Dosis/g) (timepoint 0.5 h): 4.00 % Dosis/g | Liver (% Dosis/g) (timepoint 0.5 h): 5.93 % Dosis/g | Muscle (% Dosis/g) (timepoint 0.5 h): 0.15 % Dosis/g | Ovaries (% Dosis/g) (timepoint 0.5 h): 1.06 % Dosis/g | Pancreas (% Dosis/g) (timepoint 0.5 h): 9.94 % Dosis/g | Skin (% Dosis/g) (timepoint 0.5 h): 1.08 % Dosis/g | Spleen (% Dosis/g) (timepoint 0.5 h): 1.94 % Dosis/g | Stomach (% Dosis/g) (timepoint 0.5 h): 4.18 % Dosis/g | Summary: Carcass (timepoint 0.5 h): 7.31 | Summary: faeces (timepoint 0.5 h): 0.10 | Summary: organs (timepoint 0.5 h): 33.35 | Tail (% Dosis/g) (timepoint 0.5 h): 1.81 % Dosis/g | Thyroid (% Dosis/g) (timepoint 0.5 h): 0.65 % Dosis/g | Tumor (% Dosis/g) (timepoint 0.5 h): 6.91 % Dosis/g | Tumor/Tissue: Adrenals (timepoint 0.5 h): 13.61 | Tumor/Tissue: Blood (timepoint 0.5 h): 9.81 | Tumor/Tissue: Bone (timepoint 0.5 h): 22.54 | Tumor/Tissue: Brain (timepoint 0.5 h): 92.44 | Tumor/Tissue: Fat (timepoint 0.5 h): 64.26 | Tumor/Tissue: Gallbladder (timepoint 0.5 h): 1.36 | Tumor/Tissue: Heart (timepoint 0.5 h): 20.04 | Tumor/Tissue: Intestine (timepoint 0.5 h): 4.66 | Tumor/Tissue: Kidney (timepoint 0.5 h): 0.79 | Tumor/Tissue: Liver (timepoint 0.5 h): 1.27 | Tumor/Tissue: Lung (timepoint 0.5 h): 7.67 | Tumor/Tissue: Muscle (timepoint 0.5 h): 45.35 | Tumor/Tissue: Ovaries (timepoint 0.5 h): 6.59 | Tumor/Tissue: Pancreas (timepoint 0.5 h): 0.68 | Tumor/Tissue: Skin (timepoint 0.5 h): 6.42 | Tumor/Tissue: Spleen (timepoint 0.5 h): 3.60 | Tumor/Tissue: Stomach (timepoint 0.5 h): 2.18 | Tumor/Tissue: Thyroid (timepoint 0.5 h): 10.73 | Tumor/Tissue: Uterus (timepoint 0.5 h): 5.85 | Uterus (% Dosis/g) (timepoint 0.5 h): 1.38 % Dosis/g | Summary: urine (timepoint 0.5 h): 57.06 | Summary: Recovery (timepoint 0.5 h): 97.82 | Adrenals (% Dosis/g) (timepoint 1.0 h): 0.27 % Dosis/g | Blood (% Dosis/g) (timepoint 1.0 h): 0.19 % Dosis/g | Bone (% Dosis/g) (timepoint 1.0 h): 0.16 % Dosis/g | Brain (% Dosis/g) (timepoint 1.0 h): 0.05 % Dosis/g | Fat (% Dosis/g) (timepoint 1.0 h): 0.03 % Dosis/g | Gallbladder (% Dosis/g) (timepoint 1.0 h): 8.20 % Dosis/g | Heart (% Dosis/g) (timepoint 1.0 h): 0.11 % Dosis/g | Intestine (% Dosis/g) (timepoint 1.0 h): 0.91 % Dosis/g | Liver (% Dosis/g) (timepoint 1.0 h): 2.17 % Dosis/g | Muscle (% Dosis/g) (timepoint 1.0 h): 0.07 % Dosis/g | Ovaries (% Dosis/g) (timepoint 1.0 h): 0.79 % Dosis/g | Pancreas (% Dosis/g) (timepoint 1.0 h): 3.62 % Dosis/g | Skin (% Dosis/g) (timepoint 1.0 h): 0.61 % Dosis/g | Spleen (% Dosis/g) (timepoint 1.0 h): 1.54 % Dosis/g | Stomach (% Dosis/g) (timepoint 1.0 h): 0.94 % Dosis/g | Summary: Carcass (timepoint 1.0 h): 3.58
SMILES: N[C@@H](CCC(Cc1ccc(OCC[18F])cc1)C(=O)O)C(=O)O (stereo partly drawn) [[^18F]-12] [(2S)-2-Amino-5-[4-(2-[^18F]fluoroethoxy)benzyl]hexanedioic acid]
